Assays:
Human Factor XIa = Human Factor XIa (Homo sapiens, UniProt P03951); experiment: Inhibition of human coagulation factor XIa by absorptiometry (substrate S-2366); assay type: biochemical; conditions: 37° C., 20 min incubation, absorbance 405 nm; read-out: hFXIa IC50
Protocol: Example 50: Detection of the Biological Activity of the Compounds of the Present Invention on the Inhibition of Human Coagulation Factor XIa by Absorptiometry
Buffer: 145 mM NaCl, 5 mM KCl, 1 mg/mL PEG 8000, 30 mM HEPES, pH 7.4
10 mM test compound dissolved in 100% DMSO was diluted with 100% DMSO to […]; 98 μL of FXIa enzyme solution (77.7 ng/mL) was added to each well of a 96-well plate, and 98 μL of buffer was added to the blank wells. 2 μL of compounds of different concentrations were added, and the blank and control wells were added with DMSO instead. They were mixed with a shaker, and incubated at 37° C. for 20 minutes.
Finally, 100 μL of 800 μM substrate was added to each well, and its absorbance was measured at 405 nm.

human plasma = experiment: Anticoagulant effect on human plasma in vitro (APTT determination); assay type: biochemical; conditions: for aPTT EC1.5×: concentration giving APTT of 1.5× blank control; for aPTT EC2×: concentration giving APTT of 2× blank control
Protocol: Example 51: Determination of the Anticoagulant Effect of the Compounds of the Present Invention on Human Plasma In Vitro
Plasma: Human blood was collected in a vacuum blood collection tube containing 3.2% sodium citrate (volume ratio 1:9), centrifuged at 3000 rpm for 10 min at room temperature, and the plasma was collected, divided into EP tubes, and stored at −80° C.
Reagents: APTT assay kit (Activated partial thromboplastin time assay kit, mindray), calcium chloride solution.
Instrument: coagulation meter (mindray, C2000-A)
The frozen human plasma in aliquots was thawed at room temperature and mixed well. 10 mM test compound dissolved in 100% DMSO was diluted with 100% DMSO to 1500, 750, 375, 187.5, 93.75, 46.88, 23.44, 11.72 μM. 98 μL of human plasma was added to a 1.5 mL EP tube, then 2 μL of compounds of different concentrations were added, and 2 μL of 100% DMSO was added for the blank group. They were incubated under a water bath at 37° C. for 10 min, and the samples were placed in the corresponding position of the coagulation analyzer to conduct APTT determination of the compounds.
Curve fitting was performed with GraphPad Prism software, and EC1.5× and EC2× values were calculated respectively, i.e., the concentrations of the compounds corresponding to the APTT of 1.5× and 2× blank control group.

Rat pharmacokinetics = assay type: in vivo, SD rats; design: AUC: concentration or dose not given beside the values
From the text: Example 53: Investigation of the Pharmacokinetic Characteristics of the Compounds of the Present Invention
SD rats: male, 180-250 g, purchased from Guangdong Medical Laboratory Animal Center. Cynomolgus monkey: male, 4-6 kg, purchased from Guangzhou Chunsheng Biological Research Institute Co., Ltd. Beagle dog: male, 8-12 kg, developed in Kanglong Chemical (Ningbo) New Drug Technology Co., Ltd.
Reagents: DMSO (dimethyl sulfoxide), PEG-400 (polyethylene glycol 400), normal brine, heparin, acetonitrile, formic acid, and propranolol (internal standard) are commercially available.
Instrumentation: Thermo Fisher Scientific LC-MS (U300 UPLC, TSQ […] ULTRA triple quadrupole mass spectrometer).
The compound was weighed and dissolved in DMSO-PEG-400-physiological brine (5:60:35, v/v/v) system. After the rats/monkeys were administered intravenously or by gavage, 200 μL of venous blood was collected at 5 min (not collected when administered by gavage), 15 min, 30 min, 1 h, 2 h, 4 h, 6 h, 8 h, and 24 h in heparinized EP tubes, centrifuged at 12000 rpm for 2 min, and the plasma was frozen at −80° C. for testing. A certain amount of the test substance was precisely weighed and dissolved in DMSO to 1 mg/mL, which was used as a stock solution. An appropriate amount of compound stock solution was accurately pipetted and diluted with acetonitrile to prepare a standard series of solutions. 20 μL of each of the above standard series solutions were accurately pipetted, added with 180 μL of blank plasma, vortexed and mixed to prepare plasma samples equivalent to plasma concentrations of 1, 3, 10, 30, 100, 300, 1000, 3000 and 5000 ng/mL. Two-sample analysis was performed for each concentration to establish a standard curve. 20 μL of plasma was taken out, added with 200 μL of internal standard propranolol (5 ng/mL) in acetonitrile, vortexed and mixed. It was centrifuged at 4000 rpm for 5 min, and the supernatant was collected for LC-MS analysis. LC-MS detection conditions were as follows:
Chromatographic column: Thermo Scientific […] GOLD C-18 UPLC column, 100*2.1 mm, 1.9 μm.
Mobile phase: water (0.1% formic acid)-acetonitrile for gradient elution according to the table below.
After blood drug concentrations being detected by LC-MS, WinNonlin 6.1 software was used to calculate pharmacokinetic parameters by non-compartmental model method.

Sequence of Human Factor XIa (P03951 388-625 limits assumed): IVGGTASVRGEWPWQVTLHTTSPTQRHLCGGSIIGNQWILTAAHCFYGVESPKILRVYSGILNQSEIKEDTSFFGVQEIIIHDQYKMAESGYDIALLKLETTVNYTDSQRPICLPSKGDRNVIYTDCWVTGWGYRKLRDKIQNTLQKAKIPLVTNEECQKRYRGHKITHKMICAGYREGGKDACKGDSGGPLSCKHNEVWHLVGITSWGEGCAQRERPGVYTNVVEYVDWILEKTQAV
Sequence of Human Factor XIa (P03951 19-387 partner limits assumed): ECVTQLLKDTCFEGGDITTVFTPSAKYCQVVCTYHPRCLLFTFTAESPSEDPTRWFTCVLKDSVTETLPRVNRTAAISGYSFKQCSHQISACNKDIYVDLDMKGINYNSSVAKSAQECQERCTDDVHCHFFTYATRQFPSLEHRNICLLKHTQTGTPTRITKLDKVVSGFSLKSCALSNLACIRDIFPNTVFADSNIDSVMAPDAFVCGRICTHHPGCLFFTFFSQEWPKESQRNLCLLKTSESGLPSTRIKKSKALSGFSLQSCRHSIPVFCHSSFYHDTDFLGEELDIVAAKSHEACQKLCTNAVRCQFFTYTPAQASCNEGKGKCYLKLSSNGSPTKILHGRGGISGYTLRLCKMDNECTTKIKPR

Structure (SMILES) | IC50 (Human Factor XIa) | aPTT EC1.5× (human plasma) | aPTT EC2× (human plasma) | also measured
COc1nn(C(Cc2ccc(F)cc2)C(=O)Nc2ccc(C(=O)O)cc2)c(=O)cc1-c1cc(Cl)ccc1C(C)=O (stereo not shown) [Example 2] | 45.6 nM | 3.455 µM | >15 µM | –
COc1nn(C(Cc2ccc(N3CCN(C(C)C)CC3=O)cc2)C(=O)Nc2ccc(C(=O)O)cc2)c(=O)cc1-c1cc(Cl)ccc1C(C)=O (stereo not shown) [Example 4, 4-(2-(4-(2-acetyl-5-chlorophenyl)-3-methoxy-6-oxopyridazin-1(6H)-yl)-3-(4-(4-isopropyl-2-oxopiperazin-1-yl)phenyl)propanamido)benzoic acid] | 32.6 nM | 2.171 µM | 11.938 µM | –
CCOCC1CCN(c2ccc(CC(C(=O)Nc3ccc(C(=O)O)cc3)n3nc(OC)c(-c4cc(Cl)ccc4C(C)=O)cc3=O)cc2)C(=O)C1 (stereo not shown) [Example 5] | 8.89 nM | 1.18 µM | 4.414 µM | –
COc1nn(C(Cc2ccc(C)cc2)C(=O)Nc2ccc(C(=O)O)cc2)c(=O)cc1-c1cc(Cl)ccc1C(C)=O (stereo not shown) [Example 7, 4-(2-(4-(2-acetyl-5-chlorophenyl)-3-methoxy-6-oxopyridazine-1(6H)-yl)-3-(p-tolyl)propanamido)benzoic acid] | 24.2 nM | 2.073 µM | 12.58 µM | –
COc1nn(C(Cc2cccc(C)c2)C(=O)Nc2ccc(C(=O)O)cc2)c(=O)cc1-c1cc(Cl)ccc1C(C)=O (stereo not shown) [Example 8, 4 (2-(4-(2-acetyl-5-chlorophenyl)-3-methoxy-6-oxopyridazine-1(6H)-yl)-3-(m-tolyl)propanamido)benzoic acid] | 30.3 nM | 2.67 µM | >15 µM | –
COc1nn([C@@H](Cc2ccccc2)C(=O)Nc2ccc3[nH]c(C(=O)O)cc3c2)c(=O)cc1-c1cc(Cl)ccc1C(C)=O [Example 15, (S)-5-(2-(4-(2-acetyl-5-chlorophenyl)-3-methoxy-6-oxopyridazin-1(6H)-yl)-3-phenylpropanamido)-1H-indol-2-formic acid] | 1.52 nM | 0.531 µM | 1.749 µM | F (Rat pharmacokinetics; ig): 0.1%; AUC (Rat pharmacokinetics; male, SD, plasma, iv): 599 ng·h/mL; Cmax (Rat pharmacokinetics; male, SD, plasma, iv): 1840 ng/mL; Tmax (Rat pharmacokinetics; male, SD, plasma, iv): 4.98 min; clearance (Rat pharmacokinetics; male, SD, plasma, iv): 29.1 mL/min/kg; half-life (Rat pharmacokinetics; male, SD, plasma, iv): 28 min; Vd (Rat pharmacokinetics; male, SD, plasma, iv, read-out: Vss): 0.471 L/kg; Cmax (Rat pharmacokinetics; male, SD, plasma, po, ig): 3 ng/mL; Tmax (Rat pharmacokinetics; male, SD, plasma, po, ig): 30 min
CC(=O)c1ccc(Cl)cc1-c1cc(=O)n([C@@H](Cc2ccccc2)C(=O)Nc2ccc(C(=O)O)cc2)nc1OCC1CC1 [Example 20, (S)-4-(2-(4-(2-acetyl-5-chlorophenyl)-3-(cyclopropylmethoxy)-6-oxopyridazin-1(6H)-yl)-3-phenylpropanamido)benzoic acid] | 20.6 nM | 2.418 µM | 28.32 µM | –
CC(=O)c1ccc(Cl)cc1-c1cc(=O)n([C@@H](Cc2ccccc2)C(=O)Nc2ccc(C(=O)O)cc2)nc1OC(C)C [Example 22, (S)-4-(2-(4-(2-acetyl-5-chlorophenyl)-3-isopropoxy-6-oxopyridazin-1(6H)-yl)-3-phenylpropanamido)benzoic acid] | 16.2 nM | 1.346 µM | 9.382 µM | –
CC(=O)c1ccc(Cl)cc1-c1cc(=O)n([C@@H](Cc2ccccc2)C(=O)Nc2ccc(C(=O)O)cc2)nc1OCC(F)(F)F [Example 23, (S)-4-(2-(4-(2-acetyl-5-chlorophenyl)-6-oxo-3-(2,2,2-trifluoroethoxy)pyridazine-1(6H)-yl)-3-phenylpropanamido)benzoic acid] | 22.5 nM | 4.236 µM | >15 µM | –
COc1nn(C(Cc2ccc(NC(=O)C3CC3)cc2)C(=O)Nc2ccc(C(=O)O)cc2)c(=O)cc1-c1cc(Cl)ccc1C(C)=O (stereo not shown) [Example 33, 4-(2-(4-(2-acetyl-5-chlorophenyl)-3-methoxy-6-oxopyridazin-1(6H)-yl)-3-(4-(cyclopropaneformamido)phenyl)propanamido)benzoic acid] | 19.9 nM | 1.527 µM | 7.691 µM | –
COc1nn([C@@H](Cc2ccccc2)C(=O)Nc2ccc(C(=O)O)cc2)c(=O)cc1-c1cc(Cl)ccc1C(=O)CO [Example 35, (S)-4-(2-(4-(5-chloro-2-(2-hydroxyacetyl)phenyl)-3-methoxy-6-oxopyridazin-1(6H)-yl)-3-phenylpropanamido)benzoic acid] | 16.5 nM | 1.271 µM | 5.987 µM | –
COc1nn([C@@H](Cc2ccccc2)C(=O)Nc2ccc(C(=O)O)cc2)c(=O)cc1-c1cc(Cl)ccc1C(=O)C(F)F [Example 36, (S)-4-(2-(4-(5-chloro-2-(2,2-difluoroacetyl)phenyl)-3-methoxy-6-oxopyridazine-1(6H)-yl)-3-phenylpropanamido)benzoic acid] | 11.6 nM | 1.348 µM | 6.562 µM | –
COc1nn(C(Cc2ccc(NC(=O)C3CCC3)cc2)C(=O)Nc2ccc(C(=O)O)cc2)c(=O)cc1-c1cc(Cl)ccc1C(C)=O (stereo not shown) [Example 39, 4-(2-(4-(2-acetyl-5-chlorophenyl)-3-methoxy-6-oxopyridazin-1(6H)-yl)-3-(4-(cyclobutaneformamido)phenyl)propanamido)benzoic acid] | 16.4 nM | 1.638 µM | 6.859 µM | –
COc1nn(C(Cc2ccc(NC(=O)C3CCCC3)cc2)C(=O)Nc2ccc(C(=O)O)cc2)c(=O)cc1-c1cc(Cl)ccc1C(C)=O (stereo not shown) [Example 40, 4-(2-(4-(2-acetyl-5-chlorophenyl)-3-methoxy-6-oxopyridazin-1(6H)-yl)-3-(4-(cyclopentaneformamido)phenyl)propanamido)benzoic acid] | 13.9 nM | 2.636 µM | 14.94 µM | –
O=C(O)c1ccc(NC(=O)[C@H](Cc2ccccc2)n2ncc(-c3c(F)ccc(Cl)c3F)cc2=O)cc1 [Example 42, (S)-4-(2-(4-(3-chloro-2,6-difluorophenyl)-6-oxopyridazin-1(6H)-yl)-3-phenylpropanamido)benzoic acid] | 1400 nM | – | – | –
